The experiment has as its system BDF1 mice, B16 melanoma ip, median survival T/C. The experiment is described as follows: NCI In Vivo Anticancer Drug Screen. Data for tumor model B16 Melanoma (intraperitoneal) in B6D2F1 (BDF1) mice. The note with it: endpoint: median survival time, higher = longer survival. A digest of the protocol:
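Survival or tumor size is measured after treatment of tumor-bearing mice and normalised to the vehicle-treated control group.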

Setting [1] is: dose: 3.12 mg/kg/injection, schedule: Q01DX009 (ip), vehicle: Klucel (hydroxypropylcellulose) (HPC).
The mark [2] stands for this setting: dose: 6.25 mg/kg/injection, schedule: Q01DX009 (ip), vehicle: Klucel (hydroxypropylcellulose) (HPC).
Where [3] appears, read: dose: 12.5 mg/kg/injection, schedule: Q01DX009 (ip), vehicle: Klucel (hydroxypropylcellulose) (HPC).
[4] abbreviates: dose: 25.0 mg/kg/injection, schedule: Q01DX009 (ip), vehicle: Klucel (hydroxypropylcellulose) (HPC).
The mark [5] stands for this setting: dose: 50.0 mg/kg/injection, schedule: Q01DX009 (ip), vehicle: Klucel (hydroxypropylcellulose) (HPC).
Setting [6] is: dose: 50.0 mg/kg/injection, schedule: Q04DX003 (ip), vehicle: saline.
Where [7] appears, read: dose: 100.0 mg/kg/injection, schedule: Q04DX003 (ip), vehicle: saline.
Where [8] appears, read: dose: 50.0 mg/kg/injection, schedule: Q01DX009 (ip), vehicle: saline with Tween-80.
Where [9] appears, read: dose: 100.0 mg/kg/injection, schedule: Q01DX009 (ip), vehicle: saline with Tween-80.
[10] abbreviates: dose: 200.0 mg/kg/injection, schedule: Q01DX009 (ip), vehicle: saline with Tween-80.
The mark [11] stands for this setting: dose: 200.0 mg/kg/injection, schedule: Q01DX009 (ip), vehicle: Klucel (hydroxypropylcellulose) (HPC).
[12] abbreviates: dose: 400.0 mg/kg/injection, schedule: Q01DX009 (ip), vehicle: Klucel (hydroxypropylcellulose) (HPC).
Where [13] appears, read: dose: 100.0 mg/kg/injection, schedule: Q01DX009 (ip), vehicle: Klucel (hydroxypropylcellulose) (HPC).
Where [14] appears, read: dose: 12.5 mg/kg/injection, schedule: Q01DX009 (ip), vehicle: saline with Tween-80.
Where [15] appears, read: dose: 25.0 mg/kg/injection, schedule: Q01DX009 (ip), vehicle: saline with Tween-80.
Where [16] appears, read: dose: 400.0 mg/kg/injection, schedule: Q01DX009 (ip), vehicle: saline with Tween-80.

SMILES strings stand for the structures. “And” between values parts separate entries of the source, which are not always exact repeats. Equal values may be shown once. Toxic doses and inconclusive results are not listed.

`Nc1cc(NC(=O)c2ccc(Cl)cc2)ccc1S(=O)(=O)O`: the T/C is 94 % of control under setting [1]; 99 % of control under setting [2]; 96 % of control under setting [3]; 98 % of control under setting [4]; 98 % of control under setting [5].

Consider `COc1cc(C(=O)NCCS(=O)(=O)O)cc(OC)c1OC`, for which the T/C reads like this: (dose: 100.0 mg/kg/injection, schedule: Q01DX009 (ip), vehicle: saline) 97 % of control; (dose: 200.0 mg/kg/injection, schedule: Q01DX009 (ip), vehicle: saline) 111 % of control; (dose: 400.0 mg/kg/injection, schedule: Q01DX009 (ip), vehicle: saline) 103 % of control.

With `C[NH-].C[NH-].O=C(O)CC(=O)O.[Pt+2]`, the T/C runs as follows: under setting [6], 108 % of control; under setting [7], 162 % of control; (dose: 200.0 mg/kg/injection, schedule: Q04DX003 (ip), vehicle: saline) 165 % of control.

For the compound `Cc1ccc(C(=O)CCCCl)c(C)c1`, the T/C is 100 % of control under setting [8], 101 % of control under setting [9] and 108 % of control under setting [10].

In the case of `CCOC(=O)c1cnc(SC)nc1Nc1c(Br)cc(Br)cc1Br`, the T/C under setting [3] was 106 % of control, the T/C under setting [4] is 109 % of control and the T/C under setting [5] is 106 % of control.

As to `O=C(O)CCC1CCCCC1=O` (stereo not given), the T/C runs as follows: under setting [11], 120 % of control; under setting [12], 100 % of control.

Take `CCCCOc1ccc(OCCCCCCCCCC[N+](C)(C)C)cc1`: the T/C reads like this: (dose: 1.56 mg/kg/injection, schedule: Q01DX009 (ip), vehicle: Klucel (hydroxypropylcellulose) (HPC)) 98 % of control; under setting [1], 96 % of control; under setting [2], 96 % of control; under setting [3], 93 % of control.

Consider `c1ccc2c(c1)Cc1cc3ccccc3nc1-2`, for which the T/C (dose: 100.0 mg/kg/injection, schedule: Q04DX003 (ip), vehicle: Klucel (hydroxypropylcellulose) (HPC)) is 102 % of control; the T/C (dose: 200.0 mg/kg/injection, schedule: Q04DX003 (ip), vehicle: Klucel (hydroxypropylcellulose) (HPC)) was 114 % of control; the T/C (dose: 400.0 mg/kg/injection, schedule: Q04DX003 (ip), vehicle: Klucel (hydroxypropylcellulose) (HPC)) was 98 % of control.

For the compound `CCCCCCC(=O)NC1=C(N2CC2)C(=O)C(NC(=O)CCCCCC)=C(N2CC2)C1=O`, the T/C was 110 % of control under setting [2]; 115 % of control and 120 % of control under setting [3]; 100 % of control under setting [4].

Consider `CC(=O)CC(=O)Nc1cccc(O)c1`, for which the T/C is, setting by setting: under setting [13], 92 % of control; under setting [11], 92 % of control; under setting [12], 86 % of control.

Turning to `O=C(Nc1cc(C(F)(F)F)ccc1Cl)c1ccc(Cl)cc1Cl`, the T/C by setting is: under setting [9], 88 % of control; under setting [10], 88 % of control.

For `COc1ccc2cc1Oc1ccc(cc1)C[C@H]1c3cc(c(OC)cc3CCN1C)Oc1c(OC)c(OC)cc3c1[C@H](C2)N(C)CC3`, the T/C is 109 % of control (dose: 12.5 mg/kg/injection, schedule: Q01DX009 (ip), vehicle: other); 106 % of control and 108 % of control under setting [14]; 97 % of control (dose: 12.5 mg/kg/injection, schedule: Q01DX009 (ip), vehicle: saline); 94 % of control (dose: 12.5 mg/kg/injection, schedule: Q04DX003 (ip), vehicle: saline); 106 % of control (dose: 25.0 mg/kg/injection, schedule: Q01DX009 (ip), vehicle: other); 106 % of control and 115 % of control under setting [15]. Besides, the T/C reads like this: (dose: 25.0 mg/kg/injection, schedule: Q01DX009 (ip), vehicle: saline) 100 % of control; (dose: 25.0 mg/kg/injection, schedule: Q04DX003 (ip), vehicle: saline) 108 % of control; (dose: 50.0 mg/kg/injection, schedule: Q01DX009 (ip), vehicle: other) 102 % of control; under setting [8], 94 % of control and 113 % of control; (dose: 50.0 mg/kg/injection, schedule: Q01DX009 (ip), vehicle: saline) 105 % of control; under setting [6], 97 % of control. Further, the T/C is, setting by setting: under setting [9], 89 % of control and 101 % of control and 109 % of control; under setting [7], 100 % of control.

Take `O=C(Nc1cccc([N+](=O)[O-])c1)c1cc2ccccc2cc1O`: the T/C under setting [9] is 110 % of control, the T/C under setting [10] is 107 % of control and the T/C under setting [16] was 105 % of control.

As for `CCCCNC(C)[C@]1(O)Cc2c(O)c3c(c(O)c2[C@@H](OC2CC(N)C(O)C(C)O2)C1)C(=O)c1c(OC)cccc1C3=O` (stereo not given in full), the T/C is, setting by setting: (dose: 4.7 mg/kg/injection, schedule: Q01DX001 (ip), vehicle: water) 185 % of control and 198 % of control; (dose: 9.4 mg/kg/injection, schedule: Q01DX001 (ip), vehicle: water) 185 % of control and 215 % of control and 270 % of control; (dose: 18.8 mg/kg/injection, schedule: Q01DX001 (ip), vehicle: water) 197 % of control and 222 % of control and 263 % of control; (dose: 37.5 mg/kg/injection, schedule: Q01DX001 (ip), vehicle: water) 106 % of control.

For `Clc1ccc2nc(CI)c(CI)nc2c1`, the T/C (dose: 0.19 mg/kg/injection, schedule: Q01DX009 (ip), vehicle: saline with Tween-80) is 90 % of control; the T/C (dose: 0.39 mg/kg/injection, schedule: Q01DX009 (ip), vehicle: saline with Tween-80) is 90 % of control; the T/C (dose: 0.78 mg/kg/injection, schedule: Q01DX009 (ip), vehicle: saline with Tween-80) is 100 % of control; the T/C (dose: 1.56 mg/kg/injection, schedule: Q01DX009 (ip), vehicle: saline with Tween-80) was 104 % of control; the T/C (dose: 6.25 mg/kg/injection, schedule: Q01DX009 (ip), vehicle: saline with Tween-80) was 102 % of control; the T/C under setting [14] is 97 % of control. Also, the T/C under setting [15] was 89 % of control and 97 % of control; the T/C (dose: 25.0 mg/kg/injection, schedule: Q04DX003 (ip), vehicle: saline with Tween-80) was 100 % of control; the T/C (dose: 50.0 mg/kg/injection, schedule: Q04DX003 (ip), vehicle: saline with Tween-80) is 100 % of control.

Turning to `O=C1CN=C(c2ccccc2)c2cc([N+](=O)[O-])ccc2N1`, the T/C is 100 % of control (dose: 0.02 mg/kg/injection, schedule: Q01DX009 (ip), vehicle: Klucel (hydroxypropylcellulose) (HPC)); 103 % of control (dose: 0.04 mg/kg/injection, schedule: Q01DX009 (ip), vehicle: Klucel (hydroxypropylcellulose) (HPC)); 105 % of control (dose: 0.09 mg/kg/injection, schedule: Q01DX009 (ip), vehicle: Klucel (hydroxypropylcellulose) (HPC)); 101 % of control (dose: 0.19 mg/kg/injection, schedule: Q01DX009 (ip), vehicle: Klucel (hydroxypropylcellulose) (HPC)); 98 % of control (dose: 0.39 mg/kg/injection, schedule: Q01DX009 (ip), vehicle: Klucel (hydroxypropylcellulose) (HPC)); 86 % of control under setting [1]. Besides, the T/C runs as follows: under setting [3], 90 % of control; under setting [5], 99 % of control; under setting [13], 86 % of control; under setting [12], 86 % of control.

Turning to `CN=S(=O)(OCCCCCOS(=O)(=NC)c1ccccc1)c1ccccc1` (stereo not given), the T/C runs as follows: (dose: 1.5 mg/kg/injection, schedule: Q01DX009 (ip), vehicle: saline with Tween-80) 111 % of control; (dose: 3.0 mg/kg/injection, schedule: Q01DX009 (ip), vehicle: saline with Tween-80) 104 % of control; (dose: 6.0 mg/kg/injection, schedule: Q01DX009 (ip), vehicle: saline with Tween-80) 122 % of control; under setting [14], 94 % of control; (dose: 24.0 mg/kg/injection, schedule: Q01DX009 (ip), vehicle: saline with Tween-80) 169 % of control; under setting [15], 122 % of control.

Take `O=C1CSC(=S)N1c1ccco1`: the T/C was 92 % of control under setting [8], 90 % of control under setting [9] and 87 % of control under setting [10].

Turning to `O=C(Nc1ccccc1C(F)(F)F)c1ccc(Cl)cc1Cl`, the T/C by setting is: under setting [9], 97 % of control; under setting [10], 92 % of control.

For `O=C(N[C@H](CO)[C@H](O)c1ccc([N+](=O)[O-])cc1)C(Cl)Cl`, the T/C is, setting by setting: under setting [8], 100 % of control; under setting [9], 99 % of control; under setting [10], 88 % of control; under setting [16], 88 % of control; (dose: 800.0 mg/kg/injection, schedule: Q01DX009 (ip), vehicle: saline with Tween-80) 87 % of control.
